Experimental findings from patent US20230276803A1, “A PESTICIDALLY ACTIVE MIXTURE COMPRISING THIETANYLOXY COMPOUND, OXIDES OR SALTS THEREOF” (PI INDUSTRIES LTD., priority 2020, published 2023) are described below.

Assay type in all cases: in vivo
One assay deals with Plutella xylostella. In words: Leaf dip method (cabbage leaves), Bacillus thuringiensis mixture against Plutella xylostella (Example F). Particulars: 0.1 ppm; 72 h. The text has this:
(§1) In which E represents the expected percentage of inhibition of the pests for the combination of two insecticides or one insecticide and one fungicide at defined doses (for example equal to x and y respectively), x is the percentage of inhibition observed for the pest/disease by the compound (1) at a given dose (equal to x), y is the percentage of inhibition observed for the pest/disease by the compound (2) or (3) at a defined dose (equal to y). When the percentage of inhibition observed for the combination is greater than E, there is a synergistic effect.
(§2) The leaf dip method was used, wherein the required quantity of the compounds were weighed and dissolved in a test solution prepared in tubes. The tubes were put on a vortex at 2000 rpm for 90 min for proper mixing and then, for the single compounds, diluted with a 0.01% Triton-X solution, for the combinations, diluted with a 0.01% Triton-X solution containing formulated Bt, to get the desired test concentration. Cabbage leaves were dipped in the solution for 10 seconds, shade dried for 20 min and then transferred to single cells of bioassay trays. […] Observations on dead, moribund and live larvae were recorded 72 h after the release. Percent mortality was calculated by combining dead and moribund larvae and comparing the results to the one of the untreated control. […]

The next assay concerns Alternaria solani. In words: Preventive glasshouse test against Alternaria solani in tomato (Example G). Particulars: preventive spray.
From the text: as §1
(§3) The single compounds or respective compound combinations were dissolved in 2% dimethyl sulfoxide/acetone and then mixed with water containing emulsifier to a calibrated spray volume of 50 mL. The test solutions were poured into spray bottles for further applications.
To test the preventive activity, healthy young tomato plants, raised in the greenhouse, were sprayed with the active compound preparation at the stated application rates inside the spray cabinets using hollow cone nozzles. One day after treatment, the plants were inoculated with a spore suspension containing 0.24×10^6 Alternaria solani inoculum and 2% Malt. The inoculated plants were then kept in a greenhouse chamber at a temperature of 22-24° C. and 90-95% relative humidity for disease expression.
A visual assessment of the performance of the single compounds or compound combinations was carried out by rating the disease severity (0-100% scale) on treated plants 3, 7, 10 and 15 days after application. Efficacy (% control) of the single compounds and mixtures was calculated by comparing the disease rating in the treatment with the one of the untreated control. The compounds were also assessed for their plant compatibility by recording symptoms like necrosis, chlorosis and stunting. The results have been described for the compound of formula (I-1) in Table G.

Another assay has as its system Helicoverpa armigera. In words: Diet incorporation method against Helicoverpa armigera (Example A). Particulars: Helicoverpa armigera, 96 h, read-out: Observed Efficacy (%).
From the text: as §1
The diet incorporation method was used, in which semi-synthetic diet was incorporated into the test solutions consisting either of the single compounds or respective compound combinations, when the temperature was approximately 50° C. in the bio-assay containers, then stirred thoroughly for proper mixing and allowed to cool for 30 min. The solidified diet was cut into equal pieces, and then each piece was transferred into one cell of a bio-assay tray. A single starved third instar larva was released into each of these cells of the bio-assay trays and the tray was covered with a lid. The bio-assay trays were kept under laboratory conditions at a temperature of 25° C. and relative humidity of 70%. Observations on dead, moribund and live larvae were recorded 96 h after the release of the larvae. Percent mortality was calculated by combining dead and moribund larvae and comparing the result to the one of the untreated control. The results are shown for the compound of formula (I-1) in Table A.

Another assay relates to Spodoptera litura. In words: Leaf dip method (tomato leaves), Bacillus thuringiensis mixture against Spodoptera litura (Example E). Particulars: 0.1 ppm; 72 h.
From the text: as §1
as §2, with “test concentration. Tomato leaves were” for “test concentration. Cabbage leaves were”, “cells of the bioassay trays.” for “cells of bioassay trays.”, “were recorded at 72 h” for “were recorded 72 h”

Assay [1] concerns Parastagonospora nodorum/Septoria nodorum/Stagnospora nodorum. In words: Preventive glasshouse test against Septoria nodorum in wheat (Example J). Particulars: 500 ppm, preventive spray.
From the text: as §1, §3
[…] One day after treatment, the plants were inoculated with a spore suspension containing 2.8×10^6 Stagnospora nodorum inoculum.
The inoculated plants were then kept in a greenhouse chamber at 22-25° C. temperature and 90-100% relative humidity for disease expression.
A visual assessment of the performance of the single compounds or compound combinations was carried out by rating the disease severity (0-100% scale) on treated plants 3, 7, 10 and 15 days after application. Efficacy (% control) of the single compounds and mixtures was calculated by comparing the disease rating in the treatment with the one of the untreated control. The compounds were also assessed for their plant compatibility by recording symptoms like necrosis, chlorosis and stunting. The results have been described for the compound of formula (I-1) in Table J.

Another assay deals with Pyricularia oryzae. Particulars: 500 ppm; preventive spray, rice.
The test system of another assay is Erysiphe cichoracearum. In words: Preventive glasshouse test against Erysiphe cichoracearum in cucumber (Example K). Particulars: 500 ppm, preventive spray.
From the text: as §1
The single compounds or the respective compound combinations were dissolved in 2% dimethyl sulfoxide/acetone and then mixed with water containing emulsifier to a calibrated spray volume of 50 mL. The test solutions were poured into spray bottles for further applications. […]
A visual assessment of the performance of the compounds and the respective compound combinations was carried out by rating the disease severity (0-100% scale) on treated plants 3, 7, 10 and 15 days after application. Efficacy (% control) of the single compounds or compound combinations was calculated by comparing the disease rating in the treatment with the one of the untreated control. The compounds were also assessed for their plant compatibility by recording symptoms like necrosis, chlorosis and stunting. […]

Molecules are shown by their SMILES.

`Cc1cc(Cl)cc(C(=O)NC(C)(C)C)c1NC(=O)c1cc(OC2CS(=O)(=O)C2)nn1-c1ncccc1Cl` [Compound (I-1), N-(2-(tert-butylcarbamoyl)-4-chloro-6-methylphenyl)-1-(3-chloropyridin-2-yl)-3-((1,1-dioxidothietan-3-yl)oxy)-1H-pyrazole-5-carboxamide]: the “Observed Efficacy (%)” value in the assay with Plutella xylostella is listed as 0%; in the assay on Alternaria solani (100 ppm), 14%; in the assay on Alternaria solani (500 ppm), 16%; with Spodoptera litura, 0%; in assay [1], 37%; with Pyricularia oryzae, 38%. The “Observed Efficacy (%)” value in the assay with Erysiphe cichoracearum is reported as 28%. In addition, in the assay on Helicoverpa armigera (0.1 ppm), the pest or weed control at 0.1 ppm worked out at 12.5%. For the same compound, in the assay with Helicoverpa armigera (0.41 ppm), the pest or weed control at 0.41 ppm worked out at 50%. In the assay on Helicoverpa armigera (1 ppm), the pest or weed control at 1 ppm turned out to be 25%.
